The target in experiment [1] is T1, Saccharomyces cerevisiae α-glucosidase (Saccharomyces cerevisiae, UniProt P53341). Put plainly: Enzyme kinetics of α-glucosidase inhibitory activity. The note with it: Lineweaver-Burk double reciprocal plot.
Experiment [2] has as its target T1, Saccharomyces cerevisiae α-glucosidase. Put plainly: Enzyme assay for α-glucosidase inhibitory activity.

T1 sequence (P53341 whole entry): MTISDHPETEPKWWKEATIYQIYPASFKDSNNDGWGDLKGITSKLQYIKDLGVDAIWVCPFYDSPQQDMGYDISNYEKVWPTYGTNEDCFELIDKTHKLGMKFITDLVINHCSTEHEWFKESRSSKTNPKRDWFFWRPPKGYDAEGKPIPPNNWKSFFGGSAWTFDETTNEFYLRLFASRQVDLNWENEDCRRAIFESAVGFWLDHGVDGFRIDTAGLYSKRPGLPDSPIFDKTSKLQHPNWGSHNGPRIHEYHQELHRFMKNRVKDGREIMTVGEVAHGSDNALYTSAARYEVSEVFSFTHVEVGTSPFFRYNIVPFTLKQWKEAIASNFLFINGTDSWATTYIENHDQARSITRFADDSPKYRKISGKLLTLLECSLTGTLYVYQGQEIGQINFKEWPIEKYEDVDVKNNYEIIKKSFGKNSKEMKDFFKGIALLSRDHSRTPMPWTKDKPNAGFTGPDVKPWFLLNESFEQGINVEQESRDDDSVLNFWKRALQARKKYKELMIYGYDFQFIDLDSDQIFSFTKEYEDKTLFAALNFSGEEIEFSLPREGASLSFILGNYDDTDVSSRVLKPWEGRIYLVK

For the compound `C[C@H]1O[C@H](O[C@H]2[C@H](O)[C@@H](O)[C@@H](O[C@H]3[C@H](O)[C@@H](O)C(O)O[C@@H]3CO)O[C@@H]2CO)[C@H](O)[C@@H](O)[C@@H]1N[C@H]1C=C(CO)[C@@H](O)[C@H](O)[C@H]1O` (some centres unmarked) [Acarbose, acarbose, reference compound], the Mode of inhibition entry in experiment [1] is recorded as “Competitive”.
Regarding `COc1cc(-c2[o+]c3cc(O)cc(O)c3cc2O)cc(OC)c1O` [Malvidin, malvidin chloride], the Mode of inhibition entry in experiment [1] is recorded as “Mixed type, close to non-competitive”. The concentration for half-maximal inhibition (IC50) (as a rule, the concentration needed to halve the response being measured) in experiment [2] was determined as 54.7 ± 2.14 µM.
For the compound `Oc1cc(O)c2cc(O)c(-c3ccc(O)c(O)c3)[o+]c2c1` [Cyanidin, cyanidin chloride], in experiment [1], the Mode of inhibition result was “Mixed type, close to non-competitive”. The same compound gave an IC50 in experiment [2] of 17 ± 1.35 µM.
Turning to `Oc1cc(O)c2cc(O)c(-c3cc(O)c(O)c(O)c3)[o+]c2c1` [Delphinidin, delphinidin chloride], the Mode of inhibition result in experiment [1] is “Mixed type, close to non-competitive”. Besides, the IC50 in experiment [2] was 4.11 ± 0.49 µM.
With `Oc1ccc(-c2[o+]c3cc(O)cc(O)c3cc2O)cc1` [Pelargonidin, pelargonidin chloride], the Mode of inhibition entry in experiment [1] is “Mixed type, close to non-competitive”. The compound also yielded an IC50 in experiment [2] of 50.3 ± 4 µM.
For the compound `COc1cc(-c2[o+]c3cc(O)cc(O)c3cc2O)cc(O)c1O` [Petunidin, petunidin chloride], in experiment [1], the Mode of inhibition entry was “Competitive”. Besides, the IC50 in experiment [2] was determined as 30.8 ± 1.17 µM.
